# Measurements published in US6995188B2 (priority 2002, dated 2006).
# Where two headings read alike, the source gives them in different places.
# What was measured:
# [1] = pH 5
# in vivo = settings: Swiss Webster, mouse
# [2] = tested on: mitochondrial membrane potential; format: cell-based, human
# U937/PR9 cells = format: cell-based, human
# [3] = tested on: human leukemia cell lines; format: cell-based
# physchem = settings: water
# [4] = Swiss Webster, mouse, in vivo; for Dead/Total Number / Dead/Total Number for IP Administration: ip
structure (smiles),measurement,setting,value
"C[As](C)SC[C@H](NC(=O)CC[C@H](N)C(=O)O)C(=O)NCC(=O)O [SGLU1, S-(dimethylarsino) glutathione]",loss,[1],Less than 10%
same,LD50,in vivo,350 mg/kg
same,MTD,in vivo; iv,350 mg/kg
same,change of the potential of mitochondrial membrane (CMXRos staining),[2],involves change of the potential of mitochondrial membrane
same,influence of functional PML/RARalpha gene on sensitivity,U937/PR9 cells,no influence on the sensitivity of the cells
same,anti-cancer activity against a panel of human leukemia cell lines,[3],significant anti-cancer activity
same,solubility,physchem,~60 mg/mL
same,tolerance (mortality),[4],tolerated the 178 mg/kg and the 285 mg/kg doses of SGLU1 well
same,Dead/Total Number,[4]; 178 mg/kg,0/5
same,Dead/Total Number,[4]; 285 mg/kg,1/5
same,Dead/Total Number for IP Administration,[4]; 318 mg/kg,0/5
same,Dead/Total Number,[4]; 357 mg/kg,5/5
same,Dead/Total Number for IP Administration,[4]; 375 mg/kg,4/5
same,Dead/Total Number for IV Administration,[4]; 318 mg/kg,1/5
same,Dead/Total Number for IV Administration,[4]; 375 mg/kg,5/5
